# Active and inactive are the calls of the source. The rule behind the calls is not given here.
# Key:
# HL-60 = test: Cytoprotection against human HL60 cells assessed as inhibition of H2O2-induced cell death pretreated for 1 hr followed by H2O2 stimulation measured after 3 hrs by p-iodonitrotetrazolium violet dye based LDH assay; assay type: functional
# THP-1 [1] = test: Inhibition of Pseudomonas aeruginosa-induced pyroptosis in human THP1 cells at 10 uM preincubated for 1 hr followed by bacterial infection and measured after 2 hrs by INT dye based LDH assay; assay type: functional, cell-based
# THP-1 [2] = test: Inhibition of Staphylococcus aureus-induced pyroptosis in human THP1 cells at 10 uM preincubated for 1 hr followed by bacterial infection and measured after 2 hrs by INT dye based LDH assay; assay type: functional, cell-based
# Neutrophil [3] = test: Inhibition of PMA-induced NETosis in human neutrophils assessed as effect on lipid peroxidation at 100 uM preincubated for 30 mins followed by PMA stimulation measured after 30 mins by C11-Bodipy fluorescent dye based flow cytometry; assay type: functional, cell-based
# Neutrophil [4] = test: Inhibition of PMA-induced NETosis in human neutrophils at 100 uM preincubated for 30 mins followed by PMA stimulation and measured after 3 hrs by Hoechst […] staining based fluorescence microscopic analysis; assay type: functional, cell-based
# NIH3T3 [5] = test: Inhibition of erastin-induced ferroptosis in mouse NIH/3T3 cells after 24 hrs by WST-8 assay; assay type: functional, cell-based; details: NIH3T3, 24 h
# NIH3T3 [6] = test: Inhibition of TBHP-induced ferroptosis in mouse NIH/3T3 cells after 12 hrs by WST-8 assay; assay type: functional, cell-based; details: NIH3T3, 12 h
# Neutrophil [7] = test: Inhibition of PMA-induced superoxide production in C57BL6 mouse neutrophils at 100 uM preincubated for 30 mins followed by PMA stimulation and measured after 30 mins by luminol-lucignenin based luminescence assay; assay type: functional, cell-based
# [8] = Aqueous solubility of compound in citrate-phosphate buffer at pH 7.0 after 30 mins by HPLC analysis; assay type: physicochemical
# Neutrophil [9] = test: Inhibition of PMA-induced superoxide production in C57BL6 mouse neutrophils at 2.5 uM preincubated for 30 mins followed by PMA stimulation and measured after 30 mins by luminol-lucignenin based luminescence assay; assay type: functional, cell-based
# Neutrophil [10] = test: Inhibition of PMA-induced NETosis in human neutrophils at 25 uM preincubated for 30 mins followed by PMA stimulation and measured after 3 hrs by Hoechst […] staining based fluorescence microscopic analysis; assay type: functional, cell-based
# Neutrophil [11] = test: Inhibition of PMA-induced NETosis in human neutrophils at 2.5 uM preincubated for 30 mins followed by PMA stimulation and measured after 3 hrs by Hoechst […] staining based fluorescence microscopic analysis; assay type: functional, cell-based
# Neutrophil [12] = test: Inhibition of PMA-induced NETosis in human neutrophils assessed as inhibition of ROS production at 25 uM pretreated for 25 mins followed by PMA stimulation and measured after 20 mins by DCFH-DA based flow cytometry; assay type: functional, cell-based
# Neutrophil [13] = test: Inhibition of PMA-induced NETosis in human neutrophils assessed as reduction in lipid peroxidation at 2.5 uM preincubated for 30 mins followed by PMA stimulation measured after 30 mins by C11-Bodipy fluorescent dye based flow cytometry; assay type: functional, cell-based
# Neutrophil [14] = test: Inhibition of PMA-induced NETosis in human neutrophils at […] preincubated for 30 mins followed by PMA stimulation and measured after 3.5 hrs by Hoechst […] staining based fluorescence microscopic analysis; assay type: functional, cell-based
SMILES,IC50 (HL-60) [µM],further results
CN1C(=O)C(NCc2ccccc2)=C(c2cn(C)c3ccccc23)C1=O,0.33,
CCCNC1=C(c2cn(C)c3ccccc23)C(=O)N(CCC)C1=O,0.61,
CN1C(=O)C(NC2CCCCC2)=C(c2cn(C)c3ccccc23)C1=O,1,
CCCNC1=C(c2cn(C)c3ccccc23)C(=O)N(C2CCCC2)C1=O,0.28,
CCCNC1=C(c2cn(C)c3ccccc23)C(=O)N(C(C)C)C1=O,0.034,
CCCNC(=O)[C@H]1O[C@@H]1C(=O)N[C@H](C(=O)N1CCC[C@H]1C(=O)OC)[C@@H](C)CC,,inhibition (THP-1 [1]): Active; inhibition (THP-1 [2]): Active
CN1C(=O)C(NCc2ccccn2)=C(c2cn(C)c3ccccc23)C1=O,1.3,
CN1C(=O)C(NC2CCCC2)=C(c2cn(C)c3ccccc23)C1=O,0.3,
CCCCN1C(=O)C(NCCC)=C(c2cn(C)c3ccccc23)C1=O,0.35,
CN1C(=O)C(NC2CC2)=C(c2cn(C)c3ccccc23)C1=O,3.8,
CN(C)C1=C(c2cn(C)c3ccccc23)C(=O)N(C)C1=O,4.3,
CN1C(=O)C(c2cn(C)c3ccccc23)=C(N2CCCC2)C1=O,4.7,
CN1C(=O)C(NCc2ccncc2)=C(c2cn(C)c3ccccc23)C1=O,1.2,
CN1C(=O)C(NCC2CCCCC2)=C(c2cn(C)c3ccccc23)C1=O,0.39,
CN1C(=O)C(N)=C(c2cn(C)c3ccccc23)C1=O,4.5,
COc1cccc(CNC2=C(c3cn(C)c4ccccc34)C(=O)N(C)C2=O)c1,0.42,
CCCNC1=C(c2cn(C)c3ccccc23)C(=O)N(C(c2ccccc2)(c2ccccc2)c2ccccc2)C1=O,0.8,
CN1C(=O)C(NCCc2ccccc2)=C(c2cn(C)c3ccccc23)C1=O,0.65,
CCCCCCCCCCCCCN1C(=O)C(NCCC)=C(c2cn(C)c3ccccc23)C1=O,0.4,
COc1ccc(CNC2=C(c3cn(C)c4ccccc34)C(=O)N(C)C2=O)cc1,0.86,
COc1ccccc1CNC1=C(c2cn(C)c3ccccc23)C(=O)N(C)C1=O,0.48,

SMILES,IC50 (HL-60) [µM],further results
CC(=O)N(O)CCCCCNC(=O)CCC(=O)N(O)CCCCCNC(=O)CCC(=O)N(O)CCCCCN [DEFEROXAMINE],,Activity (Neutrophil [3]): inactive; inhibition (Neutrophil [4]): inactive; IC50 (NIH3T3 [5]): 4.9 µM; IC50 (NIH3T3 [6]): 9 µM; inhibition (Neutrophil [7]): inactive
CN(C)CCNC1=C(c2cn(C)c3ccccc23)C(=O)N(C)C1=O,0.76,
CN1C(=O)C(NCc2cccc(Cl)c2)=C(c2cn(C)c3ccccc23)C1=O,0.28,
CCCNC1=C(c2cn(C)c3ccccc23)C(=O)N(Cc2ccccc2)C1=O,0.45,
CN(C)CCCNC1=C(c2cn(C)c3ccccc23)C(=O)N(C)C1=O,0.61,
CC(C)NC1=C(c2cn(C)c3ccccc23)C(=O)N(C)C1=O,0.48,
C[C@@H](NC1=C(c2cn(C)c3ccccc23)C(=O)N(C)C1=O)c1ccccc1,0.39,
CN1C(=O)C(NCc2ccccc2Cl)=C(c2cn(C)c3ccccc23)C1=O,1.7,
CCCNC1=C(c2cn(C)c3ccccc23)C(=O)N(C(CC)CC)C1=O,0.48,
CCCNC1=C(c2cn(C)c3ccccc23)C(=O)N(CC)C1=O,0.75,
CN1C(=O)C(NCCN)=C(c2cn(C)c3ccccc23)C1=O.Cl,,solubility at 0.5 h [8]: 71 mM
C[C@H](NC1=C(c2cn(C)c3ccccc23)C(=O)N(C)C1=O)c1ccccc1,0.51,
CCOC(=O)c1ccc(NC2CCCCC2)c(N)c1,,inhibition (Neutrophil [9]): inactive; inhibition (Neutrophil [10]): inactive; inhibition (Neutrophil [11]): inactive; IC50 (NIH3T3 [5]): 0.27 µM; IC50 (NIH3T3 [6]): 0.22 µM; inhibition (Neutrophil [12]): inactive; inhibition (Neutrophil [13]): Active
CCCCCN1C(=O)C(NCCC)=C(c2cn(C)c3ccccc23)C1=O,0.32,
CC(=O)N[C@@H](CS)C(=O)O,,inhibition (Neutrophil [14]): inactive
CN1C(=O)C(NC(c2ccccc2)c2ccccc2)=C(c2cn(C)c3ccccc23)C1=O,1.2,
CN1C(=O)C(NC(C)(C)C)=C(c2cn(C)c3ccccc23)C1=O,0.88,
CCCCCNC1=C(c2cn(C)c3ccccc23)C(=O)N(C)C1=O,,solubility at 0.5 h [8]: < 0.001 mM
CN1C(=O)C(NCc2ccc(Cl)cc2)=C(c2cn(C)c3ccccc23)C1=O,0.31,
CN1C(=O)C(NCc2ccco2)=C(c2cn(C)c3ccccc23)C1=O,0.71,
CN1C(=O)C(NCc2cccnc2)=C(c2cn(C)c3ccccc23)C1=O,1.3,

# Reference: ChEMBL document CHEMBL4304811, “Development of a Water-Soluble Indolylmaleimide Derivative IM-93 Showing Dual Inhibition of Ferroptosis and NETosis” (ACS Med Chem Lett, 2019)
